Laboratory results as given in BindingDB's records for patent US11753403 (Pic Therapeutics, 2023).

Biological target: T1, Eukaryotic translation initiation factor 4E [28-217] (Homo sapiens, UniProt P06730)
T1 construct: 28-217
Assay: Human eIF4E/4G2 Binding Assay
Method: Test compounds (3.43 mM stock in DMSO) were diluted 2-fold in series in DMSO (10 concentration points). Compound solutions (1.2 μl/well) were added into black 384-well polypropylene microplates (Matrix, Thermal Scientific). Twenty-two microliters per well of Assay Buffer (50 mM NaPi, pH 6.5, 50 mM KCl, 1 mM DTT and 0.5 mg/ml gamma globulin) and eight microliters per well of 82.5 nM purified eIF4E in Assay Buffer were added. The samples were incubated at room temperature (20-23° C.) for 4 hours. Biotin labeled 4G2 peptide (Ac-Lys-Gln-Tyr-Asp-Arg-Glu-Phe-Leu-Leu-Asp-Phe-Gln-Phe-Met-Pro-Lys(Aha-Bio)-NH2, 1.75 μM stock in DMSO) was diluted to 0.14 μM in Assay Buffer (without DTT) and 5 μl/well was added. The samples were incubated at room temperature for 20 min. Five microliters per well of 6.4 nM Eu-streptavidin (Eu-SA, Perkin Elmer) and 80 nM Allophycocyanin (APC)-anti His antibody (Columbia Biosciences) in Assay Buffer (without DTT) were then added and the samples were incubated at room temperature for 20 min.

T1 sequence (P06730 28-217): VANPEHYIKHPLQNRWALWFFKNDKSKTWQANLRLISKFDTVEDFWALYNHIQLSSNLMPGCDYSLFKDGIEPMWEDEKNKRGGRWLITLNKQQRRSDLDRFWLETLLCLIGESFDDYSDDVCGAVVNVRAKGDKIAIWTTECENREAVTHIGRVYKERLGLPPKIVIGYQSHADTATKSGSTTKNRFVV

SMILES	IC50
O=C(O)CCN(Cc1ccccc1)c1nc(-c2ccc(Cl)c(Cl)c2)c(CN2CCCCC2)s1 [US11753403, Compound I-90]	> 10 µM
CC(C)Cc1sc(N(CCS(N)(=O)=O)Cc2ccccc2)nc1-c1ccc(Cl)c(Cl)c1 [US11753403, Compound I-98]	> 10 µM
CC(C)Cc1sc(N(CCC(=O)O)Cc2ccccc2)nc1-c1ccc(-c2ccc(F)cc2)c(Cl)c1 [US11753403, Compound I-104]	< 1 µM
NC(=O)c1sc(N(CCC(=O)O)Cc2ccccc2)nc1-c1ccc(Cl)c(Cl)c1 [US11753403, Compound I-124]	> 10 µM
CC(C)Cc1sc(Nc2cccc(C(=O)O)c2)nc1-c1ccc(Cl)c(Cl)c1 [US11753403, Compound I-142]	< 1 µM
CC(C)Cc1sc(N(CCC(=O)NS(=O)(=O)CCCN)Cc2ccccc2)nc1-c1ccc(Cl)c(Cl)c1 [US11753403, Compound I-186]	> 10 µM
CC(C)Cc1sc(N(CCC(=O)NCCO)Cc2ccccc2)nc1-c1ccc(Cl)c(Cl)c1 [US11753403, Compound I-194]	> 10 µM
CC(C)Cc1sc(NCC(Cc2cccc(C(=O)NCCN)c2)C(=O)O)nc1-c1ccc(Cl)c(Cl)c1 (stereo not given) [US11753403, Compound I-204]	> 10 µM
CC(C)Cc1sc(-c2ccc(NC(=O)c3ccccc3)c(C(=O)O)c2)nc1-c1ccc(Cl)c(Cl)c1 [US11753403, Compound I-237]	< 1 µM
CC(C)Cc1sc(N2CCN(C(=O)c3cccc(F)c3)C(C(=O)O)C2)nc1-c1ccc(Cl)c(Cl)c1 (stereo not given) [US11753403, Compound I-247]	< 1 µM
